Reference: the supplement of paper PMC10307832

Tests used:
Assay in all cases: relative viability (nuclei count vs DMSO), 5 days (fraction); higher = more cells survive
[1] = compound: CN(C)CC1=CC(=CC=C1)N=C(C2=CC=CC=C2)C3=C(NC4=C3C=CC(=C4)C(=O)N(C)C)O
In short: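 Cells of lung cancer lines were placed in 1536-well plates and kept overnight at 37 °C. Pinning then delivered five library-drug doses (not always all listed), spaced by √10, onto plates anchored with vehicle, and the cells were left 5 days without changing medium. One step fixed, permeabilised and stained them with Hoechst, and MetaXpress counted nuclei in 4× images. Viability, as a median over plates, is treated-well nuclei divided by vehicle-well nuclei, with acceptance only at control CV below 25% and at least one doubling.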

[2] = compound: CN(C)CC1=CC(=CC=C1)N=C(C2=CC=CC=C2)C3=C(NC4=C3C=CC(=C4)C(=O)N(C)C)O + CC(=O)Nc1cccc(-n2c(=O)n(C3CC3)c(=O)c3c(Nc4ccc(I)cc4F)n(C)c(=O)c(C)c32)c1 [Trametinib] (partner 0.02 µM)
In short: (§1)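 Lung cancer cell lines were pin-tool dosed in 1536-well plates on the day after seeding, with either a lone drug or a fixed anchor-drug dose plus five library-drug doses (not always all listed) in √10 steps. Nuclei were counted on 4× images after 5 days. Relative viability is the ratio of treated-well to vehicle-well nuclei counts, with each value a median of duplicate plates.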

[3] = compound: CN(C)CC1=CC(=CC=C1)N=C(C2=CC=CC=C2)C3=C(NC4=C3C=CC(=C4)C(=O)N(C)C)O + COc1cccc2cc(-c3nc([C@H]4CC[C@H](C(=O)O)CC4)n4ncnc(N)c34)[nH]c12 [OSI-027] (partner 0.5 µM)
In short: as §1

[4] = compound: CN(C)CC1=CC(=CC=C1)N=C(C2=CC=CC=C2)C3=C(NC4=C3C=CC(=C4)C(=O)N(C)C)O + N=C(N)NC(=N)NCCc1ccccc1 [Phenformin] (partner 250 µM)
In short: as §1

Cell Line | relative viability ([1]; 0.08 µM) | relative viability ([1]; 0.253 µM) | relative viability ([1]; 0.8 µM) | relative viability ([1]; 2.53 µM) | relative viability ([1]; 8 µM) | relative viability ([2]; first compound 0.08 µM) | relative viability ([2]; first compound 0.253 µM) | relative viability ([2]; first compound 0.8 µM) | relative viability ([2]; first compound 2.53 µM) | relative viability ([2]; first compound 8 µM) | relative viability ([3]; first compound 0.08 µM) | relative viability ([3]; first compound 0.253 µM) | relative viability ([3]; first compound 0.8 µM) | relative viability ([3]; first compound 2.53 µM) | relative viability ([3]; first compound 8 µM) | relative viability ([4]; first compound 0.08 µM) | relative viability ([4]; first compound 0.253 µM) | relative viability ([4]; first compound 0.8 µM) | relative viability ([4]; first compound 2.53 µM) | relative viability ([4]; first compound 8 µM)
NCI-H1651 | 1.01 | 0.954 | 1.04 | 0.897 | 0.978 | 0.857 | 0.819 | 0.863 | 0.851 | 0.788 | 0.846 | 0.874 | 0.731 | 0.645 | 0.783 | 0.346 | 0.343 | 0.349 | 0.292 | 0.329
NCI-H1666 | 1.07 | 0.994 | 0.959 | 1.11 | 1.12 | 0.966 | 0.879 | 0.73 | 0.85 | 0.928 | 0.858 | 0.851 | 0.889 | 0.831 | 1.05 | 0.569 | 0.579 | 0.615 | 0.58 | 0.585
NCI-H1734 | 1.1 | 1.05 | 1.04 | 0.962 | 0.824 | 0.625 | 0.701 | 0.735 | 0.698 | 0.579 | 0.599 | 0.6 | 0.56 | 0.561 | 0.577 | 0.354 | 0.408 | 0.385 | 0.376 | 0.368
NCI-H1755 | 0.981 | 0.967 | 0.971 | 0.983 | 0.987 | 0.844 | 0.709 | 0.708 | 0.779 | 0.736 | 0.707 | 0.7 | 0.798 | 0.773 | 0.622 | 0.577 | 0.58 | 0.601 | 0.549 | 0.566
NCI-H1792 | 0.997 | 1.05 | 0.881 | 0.949 | 0.8 | 0.473 | 0.371 | 0.485 | 0.501 | 0.425 | 0.77 | 0.729 | 0.709 | 0.721 | 0.58 | 0.255 | 0.211 | 0.357 | 0.179 | 0.231
NCI-H1793 | 1.01 | 1.07 | 0.773 | 1.05 | 0.839 | 0.426 | 0.418 | 0.433 | 0.381 | 0.445 | 0.29 | 0.299 |  | 0.329 | 0.196 | 0.405 | 0.394 |  | 0.324 | 0.284
NCI-H1915 | 1.01 | 0.986 | 1.07 | 1.01 | 0.992 | 0.298 | 0.278 | 0.32 | 0.289 | 0.265 | 0.635 | 0.643 | 0.71 | 0.659 | 0.575 | 0.368 | 0.35 | 0.383 | 0.361 | 0.352
NCI-H1944 | 0.956 | 1.03 | 0.892 | 0.903 | 0.823 | 0.44 | 0.4 | 0.337 | 0.464 | 0.373 | 0.447 | 0.491 | 0.4 | 0.355 | 0.348 | 0.2 | 0.217 | 0.183 | 0.177 | 0.187
NCI-H1975 | 0.955 | 0.915 | 0.85 | 0.926 | 0.789 | 0.368 | 0.323 | 0.304 | 0.298 | 0.238 | 0.747 | 0.0592 | 0.675 | 0.747 | 0.585 | 0.378 | 0.407 | 0.357 | 0.393 | 0.36
NCI-H1993 | 0.979 | 0.98 | 0.717 | 0.944 | 1.07 | 0.464 | 0.513 |  | 0.53 | 0.592 | 0.529 | 0.581 | 0.567 | 0.531 | 0.598 | 0.504 | 0.498 | 0.586 | 0.507 | 0.493
NCI-H2009 | 1.03 | 0.987 | 1.1 | 0.973 | 0.97 | 0.276 | 0.314 | 0.271 | 0.297 | 0.244 | 0.507 | 0.693 | 0.764 | 0.616 | 0.467 | 0.508 | 0.484 | 0.49 | 0.416 | 0.372
NCI-H2023 | 0.966 | 0.905 | 1.01 | 0.789 | 0.79 | 0.639 | 0.557 | 0.556 | 0.545 | 0.471 | 0.321 | 0.468 | 0.488 | 0.318 | 0.335 | 0.377 | 0.392 | 0.405 | 0.338 | 0.342
NCI-H2085 | 1.02 | 1.02 | 0.98 | 1.02 | 1.02 | 0.509 | 0.568 | 0.599 | 0.643 | 0.545 | 0.856 | 1.15 | 0.582 | 0.955 | 0.768 | 0.747 | 0.711 | 0.635 | 0.784 | 0.638
NCI-H2087 | 0.915 | 1.07 | 1.04 | 0.978 | 0.956 | 0.21 | 0.247 | 0.201 | 0.196 | 0.166 | 0.552 | 0.668 | 0.569 | 0.542 | 0.367 | 0.478 | 0.522 | 0.403 | 0.48 | 0.31
NCI-H2126 | 1.01 | 0.988 | 0.941 | 1.03 | 0.903 | 0.6 | 0.59 | 0.484 | 0.602 | 0.55 | 0.612 | 0.745 | 0.812 | 0.8 | 0.676 | 0.522 | 0.553 | 0.542 | 0.511 | 0.557
NCI-H2170 | 0.952 | 0.981 | 0.812 | 1.02 | 0.915 | 0.899 | 0.892 | 0.758 | 0.917 | 0.809 | 0.739 | 0.75 | 0.465 | 0.69 | 0.676 | 0.404 | 0.4 | 0.408 | 0.381 | 0.384
NCI-H2228 | 1.04 | 1.06 | 0.874 | 0.879 | 0.789 | 0.625 | 0.417 | 0.376 | 0.457 | 0.421 | 0.638 | 0.736 | 0.615 | 0.492 | 0.419 | 0.403 | 0.308 | 0.312 | 0.254 | 0.357
NCI-H2342 | 1.02 | 1.04 | 0.904 | 1.15 | 1.02 | 0.894 | 0.751 | 0.727 | 0.906 | 1.23 | 0.63 | 0.535 | 0.621 | 0.708 | 0.65 | 0.572 | 0.685 | 0.574 | 0.647 | 0.668
NCI-H2347 | 0.996 | 1.08 | 0.971 | 1 | 1.09 | 0.301 | 0.26 | 0.278 | 0.252 | 0.33 | 0.444 | 0.525 | 0.407 | 0.471 | 0.703 | 0.436 | 0.46 | 0.368 | 0.454 | 0.467
NCI-H2405 | 1.02 | 1.01 | 1.01 | 0.902 | 0.979 | 0.642 | 0.634 | 0.593 | 0.605 | 0.535 | 0.629 | 0.653 | 0.618 | 0.57 | 0.544 | 0.358 | 0.387 | 0.378 | 0.347 | 0.249
NCI-H3122 | 0.948 | 0.94 | 1.08 | 1.01 | 1.02 | 0.225 | 0.203 | 0.235 | 0.245 | 0.243 | 1.01 | 0.962 | 1.41 | 1.06 | 0.933 | 0.386 | 0.38 | 0.391 | 0.302 | 0.354
PC-3 [JPC-3] | 1.04 | 1.05 | 0.866 | 1.06 | 1.09 | 0.709 | 0.681 | 0.653 | 0.678 | 0.702 | 0.718 | 0.792 | 0.73 | 0.802 | 0.746 | 0.446 | 0.485 | 0.428 | 0.46 | 0.496
PC-14 | 1.12 | 0.951 | 1.08 | 0.988 | 1.02 | 0.932 | 0.904 | 0.968 | 0.8 | 0.76 | 0.913 | 0.85 | 0.968 | 0.734 | 0.563 | 0.572 | 0.545 | 0.617 | 0.602 | 0.734
RERF-LC-KJ | 1.08 | 0.992 | 0.907 | 0.982 | 0.996 | 0.911 | 0.837 | 0.844 | 0.907 | 0.846 | 0.575 | 0.613 | 0.537 | 0.583 | 0.542 | 0.434 | 0.424 | 0.412 | 0.409 | 0.398
SK-LU-1 | 1.04 | 1.02 | 0.996 | 0.993 | 0.866 | 0.448 | 0.446 | 0.459 | 0.445 | 0.385 | 0.373 | 0.366 | 0.429 | 0.346 | 0.244 | 0.41 | 0.573 | 0.597 | 0.473 | 0.39
SK-MES-1 | 1 | 0.993 | 0.934 | 0.938 | 0.914 | 0.524 | 0.576 | 0.588 | 0.497 | 0.406 | 0.618 | 0.689 | 0.635 | 0.534 | 0.533 | 0.646 | 0.597 | 0.645 | 0.612 | 0.522
SW 1573 | 0.983 | 1.08 | 0.978 | 0.935 | 0.853 | 0.56 | 0.572 | 0.587 | 0.637 | 0.515 | 0.581 | 0.644 | 0.626 | 0.638 | 0.521 | 0.322 | 0.31 | 0.378 | 0.294 | 0.31
UMC-11 | 1.05 | 0.934 | 0.98 | 0.924 | 0.957 | 0.836 | 0.674 | 0.716 | 0.576 | 0.742 | 0.492 | 0.489 | 0.565 | 0.404 | 0.368 | 0.332 | 0.311 | 0.309 | 0.301 | 0.253
